Read-outs that look alike come from different tables or passages of the source.
How the values were obtained:
[1] = Solubility in biorelevant media; assay type: physicochemical
Text: (§1) In a first step, the physico-chemical characteristics of both API forms were compared in biorelevant media. Table 1 provides an overview of the solubility data and intrinsic dissolution properties. For both API forms, the compound is practically insoluble in water, irrespective of pH, but it undergoes substantial solubilization in the presence of bile. […] However, as the solubility of the newly isolated form is about 40% lower when compared to canagliflozin hemihydrate, the bioavailability in the fasted state conditions remains uncertain.

BCS classification = assay type: physicochemical
Text: The Biopharmaceutics Classification System (BCS) provides a well-established framework for assessing the biopharmaceutics risk of immediate release drug products, based on properties of the Active Pharmaceutical Ingredient (API) and drug product. The compounds are classified into one of four groups, according to their solubility and permeability properties. Compounds in BCS Class 1 (high solubility, high permeability) and BCS Class 3 (high solubility, low permeability) are eligible for biowaivers, i.e., the requirement for an in vivo bioequivalence study is waived if certain requirements are met. For the development of CRDS for these compounds, the BCS effectively acts as an accepted body of ‘prior knowledge’, as the ability of dissolution in simple aqueous buffers across the physiological pH range to ensure in vivo bioequivalence is already well established. This can form the basis of CRDS for BCS Class 1 and 3 compounds, unless additional data are generated to justify the further widening of these limits for a specific drug product.
During the experiments for continuous process improvements of JNJ-1, a new crystal form has been isolated from the drug substance crude crystallization step. The new form appeared to be the thermodynamically favoured form in the process conditions. […]

[2] = Intrinsic dissolution rate in biorelevant media; assay type: physicochemical
Text: as §1

[3] = Food effect (high-fat meal) on absorption; assay type: in vivo; details: clinically relevant dose strengths
Text: as §1
The integration of the biopharmaceutical parameters relevant for drug absorption in a more physiological context further expanded the risk assessment. For this, a PBBM model was developed and validated for JNJ-1 while using GastroPlus™ (version 8.5). Based on the available physicochemical properties, in vitro biopharmaceutical experimentation, biorelevant dissolution data, and clinical PK parameters, the model was able to simulate the in vivo observed clinical PK data.

[4] = virtual simulation, 120 mg tablets; cited from earlier work
[5] = set-up: method as in PMID 25182387; details: cited from earlier work
[6] = set-up: method as in PMID 25182387; details: pH 4.5 and 6.8; cited from earlier work
[7] = cited from earlier work

With `Cc1ccc([C@@H]2O[C@H](CO)[C@@H](O)[C@H](O)[C@H]2O)cc1Cc1ccc(-c2ccc(F)cc2)s1.O` [Registered crystal form, canagliflozin hemihydrate] the “Solubility FaSSIF” value ([1]; FaSSIF) was 540 µg/mL, the “Solubility FeSSIF” value ([1]; FeSSIF) was 5000 µg/mL and the “Solubility SGF” value ([1]; SGF) was 37 µg/mL. For the same molecule, the BCS class (BCS classification) was “BCS class 4”, the “Intrinsic Dissolution Rate FaSSIF” value ([2]; FaSSIF) was 13.8 µg/min/cm^2 and the “Intrinsic Dissolution Rate FeSSIF” value ([2]; FeSSIF) was 157.9 µg/min/cm^2. The “Intrinsic Dissolution Rate SGF” value ([2]; SGF) was 3.9 µg/min/cm^2 and the “Effect of a high-fat meal on absorption” value [3] was “absence of any effect”.
In the case of `Cc1ccc(-c2ncc(Cl)cc2-c2ccc(S(C)(=O)=O)cc2)cn1` [etoricoxib], the “Predicted AUC0-120 hr and Cmax bioequivalence of two sites formulations” value [4] is given as “bioequivalent”, the BCS class [5] is given as “BCS II” and the “F2 similarity test of dissolution profiles between two sites” value [6] is given as “failed”. For the same molecule, the “Bioequivalence of formulations from the two sites, clinical study” value [7] was “bioequivalent”.
